Experimental data published in patent publication US12616672B2, “Methods for assessing risk of cardiovascular disease and methods and compounds for use in treating or preventing cardiovascular disease” (Queen Mary University of London, priority 2017, dated 2026).
Several values for one entry are separate records, joined by “and”; a condition that tells them apart may be missing. Equal values may be shown once.

What was measured:
[1] = system: Apo E^−/− mice; assay: Apo E−/− mice given RvD5n-3 DPA: aortic arch Oil red-O staining; format: in vivo; details: 100 ng/mouse i.v., alternate days, 2 weeks; vs vehicle
Procedure: (§1) Mice (male and female) were fed a western diet for 6 weeks from 4 weeks of age and kept of a 12 h light dark cycle. At 8 weeks of age, mice were given RvD5n-3 DPA (100 ng/mouse; i.v.) or vehicle on alternate days for a 2-week period. Mice were culled, aortic arches were collected and stained using oil-red O as in Khambata R S et al. Anti-inflammatory actions of inorganic nitrate stabilize the atherosclerotic plaque. Proc Natt Acad Sci USA. 2017; 114(4):E550-E559, the contents of which are incorporated herein by reference. Staining intensity was determined using image processing software and expressed as relative units per mm^2. The descending aorta was collected, placed in ice-cold methanol and lipid mediators identified and quantified as described above.

[2] = system: Apo E^−/− mice; assay: Apo E−/− mice given RvD5n-3 DPA: lipid mediator profiling of descending aorta; format: in vivo, mouse
Procedure: Plasma was obtained from peripheral blood of healthy volunteers and patients following centrifugation at 1500×g for 10 min at room temperature. Descending aortas were weighed, placed in ice-cold methanol and homogenized using a glass dounce.
All samples for LC-MS-MS-based profiling were extracted using solid-phase extraction columns as described in Dalli et al. 2013 and Rathod et al. 2017, the contents of which are incorporated herein by reference.
Prior to sample extraction, deuterated internal standards, representing each region in the chromatographic analysis (500 pg each) were added to facilitate quantification in 4V of cold methanol.
Samples were kept at −20° C. for a minimum of 45 min to allow protein precipitation.
Supernatants were subjected to solid phase extraction, methyl formate fraction collected, brought to dryness and suspended in phase (methanol/water, 1:1, vol/vol) for injection on a Shimadzu LC-20AD HPLC and a Shimadzu SIL-20AC autoinjector, paired with a triple quadrupole mass spectrometer with or without a linear ion trap.
An Agilent Poroshell 120 EC-C18 column (100 mm×4.6 mm×2.7 μm) was kept at 50° C. and mediators eluted using a mobile phase consisting of methanol-water-acetic acid of 20:80:0.01 (vol/vol/vol) that was ramped to 50:50:0.01 (vol/vol/vol) over 0.5 min and then to 80:20:0.01 (vol/vol/vol) from 2 min to 11 min, maintained till 14.5 min and then rapidly ramped to 98:2:0.01 (vol/vol/vol) for the next 0.1 min. This was subsequently maintained at 98:2:0.01 (vol/vol/vol) for 5.4 min, and the flow rate was maintained at 0.5 ml/min. Mass spectrometer was operated using a multiple reaction monitoring method as in Walker M E et al. 13-Series resolvins mediate the leukocyte-platelet actions of atorvastatin and pravastatin in inflammatory arthritis. FASEB J. 2017 August; 31(8):3636-3648, the contents of which are incorporated herein by reference.
Each LM was identified using established criteria including matching retention time to synthetic and authentic materials and at least six diagnostic ions (Walker M E et al. 2017. ibid.)
Calibration curves were obtained for each using synthetic compound mixtures at 0.78, 1.56, 3.12, 6.25, 12.5, 25, 50, 100, and 200 pg that gave linear calibration curves with an r^2 values of 0.98-0.99.
as §1

[3] = 100 ng/mouse i.v., alternate days, 2 weeks, vs vehicle
[4] = Apo E−/− mice, western diet, RvD5n-3 DPA 100 ng/mouse i.v. alternate days 2 weeks, descending aorta, mean, n = 4
[5] = ApoE−/− mice, WD 6 weeks, 100 ng/mouse i.v. alternative days, descending aorta, mean ± s.e.m., n = 4
[6] = ApoE−/− mice, WD 6 weeks, 100 ng/mouse i.v. alternative days, descending aorta, n = 4

CC/C=C\C[C@H](O)/C=C/C=C\C/C=C\C=C\[C@@H](O)CCCCCC(=O)O [RvD5n-3 DPA, 7,17-trihydroxy-8E,10,13,15E,19Z-docosapentaenoic acid]
aortic lesions (Oil red-O staining) [1]: significant reduction
aortic 15-epi-LXA4 [2, 3]: significant upregulation
aortic MaR1 [2, 3]: significant upregulation
aortic prostanoids [2, 3]: significant reductions
reduction of aortic TxB2 concentrations [2, 3]: ~35% and > 35%
PGD2 concentration in aortic tissue [2, 4]: 15.0 pg/10 mg tissue
PGE2 concentration in aortic tissue [2, 4]: 16.2 pg/10 mg tissue
PGF2a concentration in aortic tissue [2, 4]: 9.1 pg/10 mg tissue
TxB2 concentration in aortic tissue ([2]; Apo E−/− mice, western diet, RvD5n-3 DPA 100 ng/mouse i.v. alternate days 2 weeks, descending aorta, mean, n = 4, p < 0.05 vs Vehicle): 30.7 pg/10 mg tissue
4,14-diHDHA in aorta [2, 5]: 4.9 ± 2.0 pg/10 mg aorta
5S,12S-diHETE in aorta [2, 5]: 0.6 ± 0.2 pg/10 mg aorta
5S,15S-diHETE in aorta [2, 5]: 51.9 ± 15.3 pg/10 mg aorta
7S,14S-diHDHA in aorta [2, 5]: 1.8 ± 0.3 pg/10 mg aorta
10S,17S-diHDHA in aorta [2, 5]: 66.0 ± 35.4 pg/10 mg aorta
15-epi-LXA4 in aorta [2, 5]: 9.6 ± 1.9 pg/10 mg aorta
15-epi-LXB4 in aorta [2, 5]: 1.4 ± 0.5 pg/10 mg aorta
17R-PD1 in aorta [2, 5]: 0.3 ± 0.2 pg/10 mg aorta
17R-RvD1 in aorta [2, 5]: 1.6 ± 0.9 pg/10 mg aorta
17R-RvD3 in aorta [2, 5]: 1.3 ± 0.3 pg/10 mg aorta
22-OH-PD1 in aorta [2, 5]: 6.0 ± 1.0 pg/10 mg aorta
LTB4 in aorta [2, 5]: 1.7 ± 0.3 pg/10 mg aorta
LXA4 in aorta [2, 5]: 0.3 ± 0.0 pg/10 mg aorta
LXB4 in aorta [2, 5]: 0.6 ± 0.4 pg/10 mg aorta
MaR1 in aorta [2, 5]: 35.4 ± 22.7 pg/10 mg aorta
PD1 in aorta [2, 5]: 2.6 ± 0.7 pg/10 mg aorta
PD1n-3 DPA in aorta [2, 5]: 0.0 ± 0.0 pg/10 mg aorta
PGD2 in aorta [2, 5]: 14.9 ± 3.5 pg/10 mg aorta
PGE2 in aorta [2, 5]: 20.5 ± 4.5 pg/10 mg aorta
PGF2α in aorta [2, 5]: 10.0 ± 1.7 pg/10 mg aorta
RvD1 in aorta [2, 5]: 1.7 ± 0.9 pg/10 mg aorta
RvD1n-3 DPA in aorta [2, 5]: 0.1 ± 0.1 pg/10 mg aorta
RvD2 in aorta [2, 5]: 0.4 ± 0.4 pg/10 mg aorta
RvD2n-3 DPA in aorta [2, 5]: 0.1 ± 0.1 pg/10 mg aorta
RvD3 in aorta [2, 5]: 2.4 ± 0.6 pg/10 mg aorta
RvD5 in aorta [2, 5]: 0.4 ± 0.2 pg/10 mg aorta
RvD5n-3 DPA in aorta [2, 5]: 0.1 ± 0.1 pg/10 mg aorta
RvD6 in aorta [2, 5]: 1.5 ± 1.1 pg/10 mg aorta
RvE2 in aorta [2, 5]: 0.1 ± 0.1 pg/10 mg aorta
RvE3 in aorta [2, 5]: 0.7 ± 0.1 pg/10 mg aorta
RvEl in aorta [2, 5]: 1.8 ± 0.5 pg/10 mg aorta
TxB2 in aorta [2, 5]: 34.5 ± 4.1 pg/10 mg aorta
20-OH-LTB4 in aorta [2, 6]: — (Below limits of detection)
MaR1n-3 DPA in aorta [2, 6]: — (Below limits of detection)
RvD4 in aorta [2, 6]: — (Below limits of detection)
RvT1 in aorta [2, 6]: — (Below limits of detection)
RvT2 in aorta [2, 6]: — (Below limits of detection)
RvT3 in aorta [2, 6]: — (Below limits of detection)
RvT4 in aorta [2, 6]: — (Below limits of detection)
